Measured values: PubChem BioAssay AID328 (DTP/NCI, 2004)
Where “and” joins values, the source holds several entries; their conditions need not be identical. Equal values may be shown once. Toxic doses and inconclusive results are not listed. How the source made its calls: active means survival T/C of 150% or more; inactive means T/C below 125% in these data.

Tested on: BDF1 mice, P388 leukemia ip, median survival T/C
Assay: NCI In Vivo Anticancer Drug Screen. Data for tumor model P388 Leukemia (intraperitoneal) in B6D2F1 (BDF1) mice
Settings: endpoint: median survival time, higher = longer survival
How it was run: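 Steps: implant the tumour, treat one group with compound and another with vehicle, record survival, then divide treated by control.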

[1] = dose: 12.5 mg/kg/injection, schedule: Q01DX009 (ip), vehicle: saline
[2] = dose: 25.0 mg/kg/injection, schedule: Q01DX009 (ip), vehicle: saline
[3] = dose: 25.0 mg/kg/injection, schedule: Q04DX003 (ip), vehicle: saline
[4] = dose: 50.0 mg/kg/injection, schedule: Q01DX009 (ip), vehicle: saline with Tween-80
[5] = dose: 100.0 mg/kg/injection, schedule: Q01DX009 (ip), vehicle: saline with Tween-80
[6] = dose: 100.0 mg/kg/injection, schedule: Q04DX003 (ip), vehicle: saline with Tween-80
[7] = dose: 400.0 mg/kg/injection, schedule: Q04DX003 (ip), vehicle: saline with Tween-80

Measured: T/C

CC[n+]1cccc(NC(=O)c2ccc(NC(=O)c3ccc(C(=O)Nc4ccc(C(=O)Nc5ccc[n+](CC)c5)cc4)cc3)cc2)c1
active: dose: 0.88 mg/kg/injection, schedule: Q01DX009 (ip), vehicle: saline 150 % of control | dose: 1.32 mg/kg/injection, schedule: Q01DX009 (ip), vehicle: saline 163 % of control | dose: 2.0 mg/kg/injection, schedule: Q01DX009 (ip), vehicle: saline 190 % of control | dose: 2.77 mg/kg/injection, schedule: Q01DX009 (ip), vehicle: saline 204 % of control | dose: 3.0 mg/kg/injection, schedule: Q01DX009 (ip), vehicle: saline 177 % of control | dose: 4.17 mg/kg/injection, schedule: Q01DX009 (ip), vehicle: saline 191 % of control | dose: 6.25 mg/kg/injection, schedule: Q01DX009 (ip), vehicle: saline 183 % of control and 220 % of control | dose: 9.38 mg/kg/injection, schedule: Q01DX009 (ip), vehicle: saline 237 % of control | dose: 11.0 mg/kg/injection, schedule: Q04DX003 (ip), vehicle: saline 168 % of control | [1] 295 % of control | dose: 16.5 mg/kg/injection, schedule: Q04DX003 (ip), vehicle: saline 200 % of control | [3] 200 % of control | dose: 37.5 mg/kg/injection, schedule: Q04DX003 (ip), vehicle: saline 181 % of control
inactive: dose: 0.44 mg/kg/injection, schedule: Q04DX003 (ip), vehicle: saline 118 % of control | [2] 90 % of control

O=C1C=C(NCc2ccccc2)CCC1
inactive: dose: 25.0 mg/kg/injection, schedule: Q01DX009 (ip), vehicle: saline with Tween-80 108 % of control | [4] 100 % of control | dose: 50.0 mg/kg/injection, schedule: Q01DX009 (ip), vehicle: saline 96 % of control | dose: 200.0 mg/kg/injection, schedule: Q01DX009 (ip), vehicle: saline 105 % of control

CCc1nnc2c3cc4ccccc4n3cnn12
inactive: [4] 86 % of control | [5] 87 % of control | dose: 200.0 mg/kg/injection, schedule: Q01DX009 (ip), vehicle: saline with Tween-80 103 % of control

O=C(Oc1ccc(-c2ccc(Br)cc2)cc1)c1ccco1
inactive: [4] 90 % of control | [5] 90 % of control

COc1cc(/C=N/NC(=O)c2cccs2)cc(OC)c1OC
inactive: [6] 90 % of control | dose: 200.0 mg/kg/injection, schedule: Q04DX003 (ip), vehicle: saline with Tween-80 90 % of control | [7] 100 % of control

COC1=CC(=O)c2c(O)cc(OC)c(O)c2C1=O
inactive: dose: 2.5 mg/kg/injection, schedule: Q01DX009 (ip), vehicle: saline with Tween-80 104 % of control | dose: 5.0 mg/kg/injection, schedule: Q01DX009 (ip), vehicle: saline with Tween-80 113 % of control

CCCCNC(C)(C)CS
inactive: dose: 3.12 mg/kg/injection, schedule: Q04DX003 (ip), vehicle: saline 106 % of control | dose: 6.25 mg/kg/injection, schedule: Q04DX003 (ip), vehicle: saline 115 % of control | [1] 116 % of control | dose: 12.5 mg/kg/injection, schedule: Q04DX003 (ip), vehicle: saline 108 % of control | [2] 109 % of control | [3] 97 % of control | dose: 50.0 mg/kg/injection, schedule: Q04DX003 (ip), vehicle: saline 101 % of control | dose: 100.0 mg/kg/injection, schedule: Q04DX003 (ip), vehicle: saline 92 % of control

Cc1ccc(CC(=O)O)cc1C
inactive: dose: 44.0 mg/kg/injection, schedule: Q04DX003 (ip), vehicle: saline with Tween-80 109 % of control | dose: 66.0 mg/kg/injection, schedule: Q04DX003 (ip), vehicle: saline with Tween-80 104 % of control | [6] 104 % of control | dose: 150.0 mg/kg/injection, schedule: Q04DX003 (ip), vehicle: saline with Tween-80 104 % of control

O=C1CN(C(=O)CN2C(=O)c3ccccc3C2=O)C2(CCCCC2)O1
inactive: [6] 100 % of control | [7] 100 % of control

CC1CN1P(=O)(Oc1ccccc1)N1CC1C (configuration not stated)
inactive: dose: 65.0 mg/kg/injection, schedule: Q01DX009 (ip), vehicle: saline 104 % of control

Ic1ncnc2c1ncn2C1CCCCO1 (configuration not stated)
inactive: dose: 100.0 mg/kg/injection, schedule: Q04DX003 (ip), vehicle: saline sonified 91 % of control | dose: 200.0 mg/kg/injection, schedule: Q04DX003 (ip), vehicle: saline sonified 91 % of control | dose: 400.0 mg/kg/injection, schedule: Q04DX003 (ip), vehicle: saline sonified 91 % of control

O=S1(=O)CC2(N3CCOCC3)C3CCC(C3)C21 (configuration not stated)
inactive: [6] 111 % of control | [7] 92 % of control

O=[N+]([O-])c1ccc(N/N=C/c2ccccn2)cc1
inactive: dose: 100.0 mg/kg/injection, schedule: Q04DX003 (ip), vehicle: Klucel (hydroxypropylcellulose) (HPC) 104 % of control | dose: 200.0 mg/kg/injection, schedule: Q04DX003 (ip), vehicle: Klucel (hydroxypropylcellulose) (HPC) 100 % of control | dose: 400.0 mg/kg/injection, schedule: Q04DX003 (ip), vehicle: Klucel (hydroxypropylcellulose) (HPC) 109 % of control
